Laboratory results reported in US8999071B2, “Surfactants derived from oligoglycerols” (Dow Global Technologies LLC, priority 2011, dated 2015).
Each block holds one compound with its values, some of them ahead of it.

Tests used:
Format in all cases: physicochemical
[1] = Acidic stability: appearance and shake foam in 0.01 M HCl
Protocol: The acidic stability of compounds 1 and 2 are tested and compared with Triton™ CG-110 in 0.01 M HCl: solutions are prepared in 0.01 M HCl at 0.1 wt % surfactant concentration. Compound 1 solution is cloudy at this HCl concentration, indicating its cloud point is reduced by the presence of HCl.

[2] = Caustic stability: solubility in NaOH solution
Protocol: The caustic stability of compounds 1 and 2 is measured by their solubility in 10 wt % NaOH solution: stock solutions are prepared at 1 wt %. Into a sample vial, 1.0 gram of a stock solution is weighed and then 9.0 grams of 11.1 wt % NaOH solution is added to get a 0.1 wt % surfactant solution in 10% NaOH. Both solutions are clear at this condition. In contrast, Tomadol® 91-6 (C9-C11 alcohols ethoxylated to 6EO, cloud point=52° C.) solution (0.1 wt %) becomes cloudy at 5% NaOH content.

[3] = Dynamic surface tension, maximum bubble pressure method (Kruss BP-2)
Protocol: Dynamic surface tension is measured using a Kruss BP-2 Bubble Pressure Tensiometer. During the test, high purity nitrogen gas bubbles are produced in the surfactant solution at an exactly defined bubble generation rate. The gas bubbles enter the liquid through a glass capillary of known radius (0.223 mm). During this process the pressure passes through a maximum whose value is recorded by the instrument. Surface tension is then calculated from the maximum pressure during bubble formation, and reported as a function of bubble surface age, in ms, and bubble frequency. The measurements are made at ambient temperature.
Dynamic surface tension of surfactants at varying surface ages (presented as bubble frequency) are measure by bubble pressure method on Kruss BP2 tensiometer at 0.1 wt % concentration and 25° C.

[4] = as above; remark: listed apart in the source
[5] = Surface tension and critical micelle concentration, Kruss K100 tensiometer with Wilhelmy plate; conditions: 25° C., FIG. 1
Protocol: The surface tension and critical micelle concentration (cmc) of a surfactant solution is measured using Kruss K100 Surface Tensiometer fitted with a Wilhelmy platinum plate. A standard method is utilized. In this method, an increment of surfactant solution is added using a Dosimat™ dosimeter to the vessel initially containing deionized water, and then thoroughly stirred. The surface tension of the resulting solution is then measured. The process is repeated at each concentration data point. Two measurements are made for each system at ambient temperature.
Surface tension-Concentration data for the compound 3 at 25° C. are plotted in FIG. 1.

- acidic stability compared with Triton CG-110 ([1]; 0.01 M HCl): improved stability
- Foam Volume, 20 h ([1]; 0.1 wt % in 0.01M HCl, 10 ml, shaken at high for 10 min., after 20 hours in air at room temperature): 17 mL
- Foam Volume, 0 h ([1]; 0.1 wt % in 0.01M HCl, 10 ml, shaken at high for 10 min., right after preparation): 17 mL
- foam persistence after shaking, 20 h ([1]; 0.1 wt % in 0.01M HCl, after 20 hours at room temperature): no change
- foam persistence after shaking, 0 h ([1]; 0.1 wt % in 0.01M HCl, right after preparation): no change
- appearance of solution in 0.01 M HCl ([1]; 0.1 wt % surfactant, 0.01 M HCl): cloudy
- appearance of 0.1 wt % surfactant solution in 10% NaOH [2]: clear
- surface tension over the whole tested range of ageing time compared to C12TG, C11DG and C10DG ([3]; 0.1 wt %, 25° C., FIG. 2): lower surface tension
- Surface Tension @ 6 bubbles/sec., 0.1 wt % ([3]; 25° C.): 35.6 dyne/cm
SMILES: CCCCCCCCCOCC(O)COCC(O)CO (stereo not drawn) [Compound 1, 3-[3-(nonyloxy)-2-hydroxypropoxy]-1,2-propanediol]

- acidic stability compared with Triton CG-110 ([1]; 0.01 M HCl): improved stability
SMILES: CCCCCCCCCCOCC(O)COCC(O)COCC(O)CO (stereo not drawn) [Compound 2, 3-(3-(3-(decyloxy)-2-hydroxypropoxy)-2-hydroxypropoxy)propane-1,2-diol]

- Surface Tension @ 6 bubbles/sec., 0.1 wt % ([3]; 25° C.): 56.9 dyne/cm
SMILES: CCCCCCCCCCCCOCC(O)COCC(O)COCC(O)CO (stereo not drawn) [Compound C12TG, 3-(3-(3-(dodecyloxy)-2-hydroxypropoxy)-2-hydroxypropoxy)propane-1,2-diol, reference compound]

- Surface Tension @ 6 bubbles/sec., 0.05 wt % [4]: 39.4 dyne/cm
- critical micelle concentration (cmc) [5]: about 700 ppm
- water surface tension after reaching critical micelle concentration [5]: 26-27 dynes/cm
- surface tension at bubble frequency larger than 10 bubbles/sec ([3]; 0.1 wt %, 25° C., >10 bubbles/sec, FIG. 2): around 37 dynes/cm
- surface tension in the whole range of surface ageing time compared to the Lutensol products ([3]; 0.1 wt %, 25° C., FIG. 2): lower surface tension
- surface tension over the whole tested range of ageing time compared to C12TG, C11DG and C10DG ([3]; 0.1 wt %, 25° C., FIG. 2): lower surface tension
- surface tension at lower bubble frequency compared to Surfynol 420 ([3]; 1-6 bubbles/sec., 0.1 wt %, FIG. 2): significantly lower surface tension
- Surface Tension @ 6 bubbles/sec., 0.1 wt % ([3]; 25° C.): 33.3 dyne/cm
SMILES: CCCCCC(CCC)COCC(O)COCC(O)CO (stereo not drawn) [Compound 3, 3-(2-hydroxy-3-((2-propylheptyl)oxy)propoxy)propane-1,2-diol]

- Surface Tension @ 6 bubbles/sec., 0.1 wt % ([3]; 25° C.): 43.8 dyne/cm
SMILES: CCCCCCCCCCOCC(O)COCC(O)CO (stereo not drawn) [Compound 4, 3[3-(decyloxy)-2-hydroxypropoxy]-1,2-propanediol]

- Surface Tension @ 6 bubbles/sec., 0.1 wt % ([3]; 25° C.): 61.4 dyne/cm
SMILES: CCCCCCCCCCCOCC(O)COCC(O)CO (stereo not drawn) [Compound 6, 3-(2-hydroxy-3-(undecyloxy)propoxy)propane-1,2-diol]
